Experiments:
[1] = Mutagenicity in Salmonella typhimurium TA100 in presence of liver S9 fraction by AMES test; format: toxicity, subcellular; settings: salmonella enterica subsp. enterica serovar typhimurium
[2] = Mutagenicity in Salmonella typhimurium TA98 in presence of liver S9 fraction by AMES test; format: toxicity, subcellular; settings: salmonella enterica subsp. enterica serovar typhimurium
[3] = Mutagenicity in Salmonella typhimurium TA98 by AMES test; format: toxicity; settings: salmonella enterica subsp. enterica serovar typhimurium
[4] = Mutagenicity in Salmonella typhimurium TA100 by AMES test; format: toxicity; settings: salmonella enterica subsp. enterica serovar typhimurium
Hepatitis C virus [5] = experiment: Antiviral activity against Hepatitis C virus subtype 2a infected in Huh 7.5.1 cells assessed as reduction in viral replication incubated for 3 days by JC1 Gaussia luciferase reporter gene assay; format: functional, organism-based, Hepacivirus hominis; settings: Huh-7.5.1, 72 h
Hepatitis C virus [6] = experiment: Antiviral activity against Hepatitis C virus subtype 1b infected in Huh 7.5.1 cells assessed as reduction in viral replication incubated for 3 days by NK5.1 luciferase reporter gene assay; format: functional, organism-based, Hepacivirus hominis; settings: Huh-7.5.1, 72 h
Hepatitis C virus [7] = experiment: Antiviral activity against Hepatitis C virus subtype 3a infected in Huh 7.5.1 cells assessed as reduction in viral replication incubated for 3 days by S52-Feo luciferase reporter gene assay; format: functional, organism-based, Hepacivirus hominis; settings: Huh-7.5.1, 72 h
Hepatitis C virus [8] = experiment: Antiviral activity against Hepatitis C virus subtype 1b harboring NS5A L31V mutant infected in Huh 7.5.1 cells assessed as reduction in viral replication incubated for 3 days by NK5.1 luciferase reporter gene assay; format: functional, organism-based, Hepacivirus hominis; settings: Huh-7.5.1, 72 h
Hepatitis C virus [9] = experiment: Antiviral activity against Hepatitis C virus subtype 1b harboring NS5A L31V/Y93H double mutant infected in Huh 7.5.1 cells assessed as reduction in viral replication incubated for 3 days by NK5.1 luciferase reporter gene assay; format: functional, organism-based, Hepacivirus hominis; settings: Huh-7.5.1, 72 h
Hepatitis C virus [10] = experiment: Antiviral activity against Hepatitis C virus subtype 1b harboring NS5A Y93H mutant infected in Huh 7.5.1 cells assessed as reduction in viral replication incubated for 3 days by NK5.1 luciferase reporter gene assay; format: functional, organism-based, Hepacivirus hominis; settings: Huh-7.5.1, 72 h

SMILES	Activity [1]	Activity [2]	Activity [3]	Activity [4]	EC50 (Hepatitis C virus [5]) [nM]	EC50 (Hepatitis C virus [6]) [nM]	EC50 (Hepatitis C virus [7]) [nM]	EC50 (Hepatitis C virus [8]) [nM]	EC50 (Hepatitis C virus [9]) [nM]	EC50 (Hepatitis C virus [10]) [nM]
COCCOc1cccc(Cn2c3cc(N)ccc3c3ccc(N)cc32)c1	Non-Toxic	Toxic	Non-Toxic	Non-Toxic	–	–	–	–	–	–
CCCCCCOc1ccc(Cn2c3cc(N)ccc3c3ccc(N)cc32)cc1	Non-Toxic	Toxic	Non-Toxic	Non-Toxic	–	–	–	–	–	–
CC(C)=CC1c2cc(N)ccc2-c2ccc(N)cc21	Toxic	Toxic	Toxic	Toxic	–	–	–	–	–	–
CCCCCCCCCC(c1ccccc1)n1c2cc(N)ccc2c2ccc(N)cc21 (stereo not given)	Non-Toxic	Non-Toxic	Non-Toxic	Non-Toxic	–	–	–	–	–	–
CCCCCCCCCCn1c2cc(N)ccc2c2ccc(N)cc21	Non-Toxic	Toxic	Non-Toxic	Non-Toxic	–	–	–	–	–	–
Nc1ccc2c3ccc(N)cc3n(Cc3cccc(OC4CCCC4)c3)c2c1	Non-Toxic	Toxic	Non-Toxic	Non-Toxic	–	–	–	–	–	–
CCCCC(CCCC)n1c2cc(N)ccc2c2ccc(N)cc21	Non-Toxic	Non-Toxic	Non-Toxic	Non-Toxic	–	–	–	–	–	–
Nc1ccc2c(c1)C(c1ccc(F)cc1)c1cc(N)ccc1-2	Non-Toxic	Toxic	Non-Toxic	Non-Toxic	–	–	–	–	–	–
Nc1ccc2c(c1)C(CCCCC(F)(F)F)(CCCCC(F)(F)F)c1cc(N)ccc1-2	Non-Toxic	Non-Toxic	Non-Toxic	Non-Toxic	–	–	–	–	–	–
CCCCn1c2cc(N)ccc2c2ccc(N)cc21	Toxic	Toxic	Toxic	Toxic	–	–	–	–	–	–
CC(c1ccccc1)n1c2cc(N)ccc2c2ccc(N)cc21 (stereo not given)	Toxic	Toxic	Non-Toxic	Non-Toxic	–	–	–	–	–	–
Nc1ccc2c(c1)C(CCCC(F)(F)F)(CCCC(F)(F)F)c1cc(N)ccc1-2	Non-Toxic	Toxic	Non-Toxic	Non-Toxic	–	–	–	–	–	–
CCCC1(CCC)c2cc(N)ccc2-c2ccc(N)cc21	Non-Toxic	Toxic	Non-Toxic	Non-Toxic	–	–	–	–	–	–
Nc1ccc2c3ccc(N)cc3n(CCCCCCCCCCN3CCOCC3)c2c1	Non-Toxic	Non-Toxic	Non-Toxic	Non-Toxic	–	–	–	–	–	–
Nc1ccc2c(c1)C(=Cc1ccncc1)c1cc(N)ccc1-2	Toxic	Toxic	Non-Toxic	Non-Toxic	–	–	–	–	–	–
Nc1ccc2c(c1)C(=Cc1ccc(C(F)(F)F)cc1)c1cc(N)ccc1-2	Non-Toxic	Toxic	Toxic	Non-Toxic	–	–	–	–	–	–
CCCCCCCCCCCCn1c2cc(N)ccc2c2ccc(N)cc21	Non-Toxic	Non-Toxic	Non-Toxic	Non-Toxic	–	–	–	–	–	–
Nc1ccc2c(c1)C(Cc1ccc(C(F)(F)F)cc1)c1cc(N)ccc1-2	Non-Toxic	Toxic	Toxic	Non-Toxic	–	–	–	–	–	–
CCCCC1(CCCC)c2cc(NC(=O)[C@@H]3C[C@@H](O)CN3C(=O)[C@H](NC(=O)OC)c3ccccc3)ccc2-c2ccc(NC(=O)[C@@H]3C[C@@H](O)CN3C(=O)[C@H](NC(=O)OC)c3ccccc3)cc21	–	–	–	–	1.2	0.002	0.016	0.003	41.4	0.88
Nc1ccc2c(c1)C(c1ccc3ccccc3c1)c1cc(N)ccc1-2	Non-Toxic	Toxic	Non-Toxic	Non-Toxic	–	–	–	–	–	–
CCCCC(c1ccccc1)n1c2cc(N)ccc2c2ccc(N)cc21 (stereo not given)	Non-Toxic	Toxic	Non-Toxic	Non-Toxic	–	–	–	–	–	–
Nc1ccc2c3ccc(N)cc3n(C(C3CC3)C3CC3)c2c1	Toxic	Toxic	Non-Toxic	Non-Toxic	–	–	–	–	–	–
CC(C)(C)c1ccc(C2c3cc(N)ccc3-c3ccc(N)cc32)cc1	Non-Toxic	Toxic	Non-Toxic	Non-Toxic	–	–	–	–	–	–
Nc1ccc2c(c1)C(c1ccc(Br)cc1)c1cc(N)ccc1-2	Non-Toxic	Toxic	Non-Toxic	Non-Toxic	–	–	–	–	–	–
CC(C)c1ccc(C2c3cc(N)ccc3-c3ccc(N)cc32)cc1	Non-Toxic	Toxic	Non-Toxic	Non-Toxic	–	–	–	–	–	–
CCCCOc1ccc(Cn2c3cc(N)ccc3c3ccc(N)cc32)cc1	Non-Toxic	Toxic	Non-Toxic	Non-Toxic	–	–	–	–	–	–
Nc1ccc2c(c1)C(c1ccc(C(F)(F)F)cc1)c1cc(N)ccc1-2	Non-Toxic	Toxic	Non-Toxic	Non-Toxic	–	–	–	–	–	–
